# Measurements taken from ChEMBL document CHEMBL1159172, “Modelisation, Synthesis and Anti-HIV activities of N,N,N,N,N-pentakistetraazamacrocycles salts derivatives” (Bioorg Med Chem Lett, 1997).
# Experiments:
# MT4 [1] = test: The compound was tested for its cytotoxic activity against HIV-1 replication in MT-4 cells, (50% cytotoxic concentration).; format: functional, Homo sapiens; set-up: unit not given here
# [2] = Selectivity index of EC50 and CC50; format: functional
# MT4 [3] = test: The compound was tested for its inhibitory activity against HIV-1 replication in MT-4 cells(50% antiviral effective concentration); IA: inactive.; format: functional, cell-based, Homo sapiens
Structure (SMILES),CC50 (MT4 [1]),SI [2],EC50 (MT4 [3])
[Cl-].c1ccc(CNCCCCCN2CCCN(CCCCCNCc3ccccc3)CC[N+](CCCCCNCc3ccccc3)(CCCCCNCc3ccccc3)CCCN(CCCCCNCc3ccccc3)CC2)cc1,5,50,–
c1ccc(CNCCCCCN2CCCN(CCCCCNCc3ccccc3)CCCN(CCCCCNCc3ccccc3)CCN(CCCCCNCc3ccccc3)CCC2)cc1,1,–,–
c1ccc(CNCCCCCN2CCCN(CCCCCNCc3ccccc3)CCN(CCCCCNCc3ccccc3)CCCN(CCCCCNCc3ccccc3)CC2)cc1,10,10,–
CC(C)(C)OC(=O)N(CCCCCN1CCCN(CCCCCN(Cc2ccccc2)C(=O)OC(C)(C)C)CCN(CCCCCN(Cc2ccccc2)C(=O)OC(C)(C)C)CCCN(CCCCCN(Cc2ccccc2)C(=O)OC(C)(C)C)CC1)Cc1ccccc1,>10,> 10,–
CC(C)(C)OC(=O)N(CCCCCN1CCCN(CCCCCN(Cc2ccccc2)C(=O)OC(C)(C)C)CC[N+](CCCCCN(Cc2ccccc2)C(=O)OC(C)(C)C)(CCCCCN(Cc2ccccc2)C(=O)OC(C)(C)C)CCCN(CCCCCN(Cc2ccccc2)C(=O)OC(C)(C)C)CC1)Cc1ccccc1.Cc1ccc(S(=O)(=O)[O-])cc1,50,10,–
CC(C)(C)OC(=O)N(CCCCCN1CCCN(CCCCCN(Cc2ccccc2)C(=O)OC(C)(C)C)CCN(CCCCCN(Cc2ccccc2)C(=O)OC(C)(C)C)CCC[N+](CCCCCN(Cc2ccccc2)C(=O)OC(C)(C)C)(CCCCCN(Cc2ccccc2)C(=O)OC(C)(C)C)CCC1)Cc1ccccc1.Cc1ccc(S(=O)(=O)[O-])cc1,10,–,Not Active
CC(C)(C)OC(=O)N(CCCCCN1CCCN(CCCCCN(Cc2ccccc2)C(=O)OC(C)(C)C)CCCN(CCCCCN(Cc2ccccc2)C(=O)OC(C)(C)C)CCN(CCCCCN(Cc2ccccc2)C(=O)OC(C)(C)C)CCC1)Cc1ccccc1,>50,> 5,–
C1CNCCNCCCN(CCCN2CCCNCCNCCCNCC2)CCNC1,>100,> 100,–
[Cl-].c1ccc(CNCCCCCN2CCCN(CCCCCNCc3ccccc3)CCN(CCCCCNCc3ccccc3)CCC[N+](CCCCCNCc3ccccc3)(CCCCCNCc3ccccc3)CCC2)cc1,10,–,Not Active
